Reference: ChEMBL document CHEMBL5260833, “An overview of quinazolines: Pharmacological significance and recent developments” (Eur J Med Chem, 2018)

Key:
[1] = molecular target: T1, Type-1 angiotensin II receptor A (Rattus norvegicus, UniProt P25095); experiment: Inhibition of rat adrenal cortex angiotensin II; type: tissue-based
T1 sequence (P25095 whole entry): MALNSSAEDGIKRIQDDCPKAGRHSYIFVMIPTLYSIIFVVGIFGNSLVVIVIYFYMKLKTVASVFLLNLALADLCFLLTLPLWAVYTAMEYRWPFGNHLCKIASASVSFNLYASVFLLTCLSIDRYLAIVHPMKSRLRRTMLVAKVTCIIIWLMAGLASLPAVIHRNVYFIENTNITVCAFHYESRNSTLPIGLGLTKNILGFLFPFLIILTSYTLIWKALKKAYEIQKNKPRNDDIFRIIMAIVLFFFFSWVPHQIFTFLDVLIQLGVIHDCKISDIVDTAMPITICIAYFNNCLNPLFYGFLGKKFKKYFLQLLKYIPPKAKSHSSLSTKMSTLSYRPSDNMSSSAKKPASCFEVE

Rattus norvegicus [2] = experiment: Inhibition of AII induced mean arterial blood pressure in rat assessed as vasoconstrictor at 5 mg/kg, po; type: functional
[3] = molecular target: T2, Type-2 angiotensin II receptor (Rattus norvegicus, UniProt P35351); experiment: Binding affinity to AT2 in rat brain; type: tissue-based
T2 sequence (P35351 whole entry): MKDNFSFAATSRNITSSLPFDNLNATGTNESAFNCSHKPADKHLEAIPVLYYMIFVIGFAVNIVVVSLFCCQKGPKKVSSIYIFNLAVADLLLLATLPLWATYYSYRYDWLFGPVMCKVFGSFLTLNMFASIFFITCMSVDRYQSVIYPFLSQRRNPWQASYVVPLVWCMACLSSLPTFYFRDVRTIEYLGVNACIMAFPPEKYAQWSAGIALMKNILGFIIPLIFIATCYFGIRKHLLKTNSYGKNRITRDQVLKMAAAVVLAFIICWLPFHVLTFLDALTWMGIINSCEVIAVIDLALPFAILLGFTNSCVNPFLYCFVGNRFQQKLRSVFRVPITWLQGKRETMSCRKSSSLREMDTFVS

Rattus norvegicus [4] = experiment: Inhibition of AII induced mean arterial blood pressure in rat assessed as vasoconstrictor at 1 mg/kg, po; type: functional
Fusarium oxysporum = experiment: Antifungal activity against Fusarium oxysporum assessed as bacterial growth inhibition at 50 ug/ml incubated for 5 days relative to control; type: functional; conditions: 120 h, time 5 day
Fusarium graminearum = experiment: Antifungal activity against Gibberella zeae assessed as bacterial growth inhibition at 50 ug/ml incubated for 5 days relative to control; type: functional; conditions: 120 h, time 5 day
Cytospora mali = experiment: Antifungal activity against Valsa mali assessed as bacterial growth inhibition at 50 ug/ml incubated for 5 days relative to control; type: functional; conditions: 120 h, time 5 day
Rattus norvegicus [5] = experiment: Inhibition of AII induced rat assessed as vasoconstrictor at 15 mg/kg, iv; type: functional

CCCCc1nc2ccc(C(C)(C)OC)cc2c(=O)n1Cc1ccc(-c2ccccc2-c2nn[nH]n2)cc1 [CL-329167]
IC50 [1]: 18 nM
Activity (Rattus norvegicus [2]): 65 mmHg

CCc1nc2ccc(N(Cc3ccccc3)C(=O)c3cccs3)cc2c(=O)n1Cc1ccc(-c2ccccc2-c2nn[nH]n2)cc1
IC50 [3]: 0.22 nM

CCCCc1nc2ccc([C@H]3C[C@@]4(C)CCCCN4O3)cc2c(=O)n1Cc1ccc(-c2ccccc2-c2nnn[nH]2)cc1
Activity (Rattus norvegicus [4]): 55 mmHg

CCCCc1nc2ccc(C(C)(C)O)cc2c(=O)n1Cc1ccc(-c2ccccc2-c2nn[nH]n2)cc1
IC50 [1]: 5 nM
Activity (Rattus norvegicus [2]): 65 mmHg

C=CCn1cnc2ccc(F)cc2c1=O
inhibition at 50 µg/mL (Fusarium oxysporum): 4.9%
inhibition at 50 µg/mL (Fusarium graminearum): 5.5%
inhibition at 50 µg/mL (Cytospora mali): 0.9%

CCCCC1Nc2ccccc2C(=O)N1Cc1ccc(-c2ccccc2-c2nn[nH]n2)cc1 (stereo unspecified)
IC50 [1]: 14000 nM
inhibition in vivo at 15 mg/kg (Rattus norvegicus [5]): 88%

CCn1cnc2ccccc2c1=O
inhibition at 50 µg/mL (Fusarium oxysporum): 4.9%
inhibition at 50 µg/mL (Fusarium graminearum): 5.5%
inhibition at 50 µg/mL (Cytospora mali): 0.9%

CCCCc1nc2ccc(C(O)C(C)(C)C)cc2c(=O)n1Cc1ccc(-c2ccccc2-c2nn[nH]n2)cc1 (stereo unspecified)
IC50 [1]: > 1000 nM
Activity (Rattus norvegicus [2]): 65 mmHg

CCCn1cnc2ccc(F)cc2c1=O
inhibition at 50 µg/mL (Fusarium oxysporum): 4.9%
inhibition at 50 µg/mL (Fusarium graminearum): 5.5%
inhibition at 50 µg/mL (Cytospora mali): 0.9%

CCn1cnc2ccc(Br)cc2c1=O
inhibition at 50 µg/mL (Fusarium oxysporum): 4.9%
inhibition at 50 µg/mL (Fusarium graminearum): 5.5%
inhibition at 50 µg/mL (Cytospora mali): 0.9%

Cc1nc2ccc(N(Cc3ccccc3Cl)C(=O)c3ccccc3)cc2c(=O)n1Cc1ccc(-c2ccccc2-c2nn[nH]n2)cc1
IC50 [3]: 0.06 nM

CCn1cnc2ccc(Cl)cc2c1=O
inhibition at 50 µg/mL (Fusarium oxysporum): 4.9%
inhibition at 50 µg/mL (Fusarium graminearum): 5.5%
inhibition at 50 µg/mL (Cytospora mali): 0.9%

CCCCc1nc2ccc([C@@]3(C)C[C@H]4CCCCN4O3)cc2c(=O)n1Cc1ccc(-c2ccccc2-c2nn[nH]n2)cc1
Activity (Rattus norvegicus [4]): 55 mmHg

C=CCn1cnc2ccccc2c1=O
inhibition at 50 µg/mL (Fusarium oxysporum): 4.9%
inhibition at 50 µg/mL (Fusarium graminearum): 5.5%
inhibition at 50 µg/mL (Cytospora mali): 0.9%

CCn1cnc2ccc(F)cc2c1=O
inhibition at 50 µg/mL (Fusarium oxysporum): 4.9%
inhibition at 50 µg/mL (Fusarium graminearum): 5.5%
inhibition at 50 µg/mL (Cytospora mali): 0.9%

CCCCc1nc2ccc([C@@]3(C(=O)N4CCCC4)C[C@H]4CCCN4O3)cc2c(=O)n1Cc1ccc(-c2ccccc2-c2nnn[nH]2)cc1
Activity (Rattus norvegicus [4]): 55 mmHg

CCCn1cnc2ccc(Cl)cc2c1=O
inhibition at 50 µg/mL (Fusarium oxysporum): 4.9%
inhibition at 50 µg/mL (Fusarium graminearum): 5.5%
inhibition at 50 µg/mL (Cytospora mali): 40.9%

CCCCC(CCCC)C1Nc2ccccc2C(=O)N1Cc1ccc(-c2ccccc2-c2nnn[nH]2)cc1 (stereo unspecified)
IC50 [1]: 12000 nM
inhibition in vivo at 15 mg/kg (Rattus norvegicus [5]): 88%

CCCC1Nc2ccccc2C(=O)N1Cc1ccc(-c2ccccc2-c2nn[nH]n2)cc1 (stereo unspecified)
IC50 [1]: 540 nM
inhibition in vivo at 15 mg/kg (Rattus norvegicus [5]): 88%

CCCCc1nc2ccc([C@H]3C[C@H]4CCCN4O3)cc2c(=O)n1Cc1ccc(-c2ccccc2-c2nnn[nH]2)cc1
Activity (Rattus norvegicus [4]): 55 mmHg

CCCCc1nc2ccc([C@]3(C)C[C@H]4CCCCN4O3)cc2c(=O)n1Cc1ccc(-c2ccccc2-c2nn[nH]n2)cc1
Activity (Rattus norvegicus [4]): 55 mmHg

CCCCc1nc2ccc([C@H]3C[C@H]4CC[C@H](C)N4O3)cc2c(=O)n1Cc1ccc(-c2ccccc2-c2nnn[nH]2)cc1
Activity (Rattus norvegicus [4]): 55 mmHg

CCCCC1Nc2ccc(C(C)C)cc2C(=O)N1Cc1ccc(-c2ccccc2-c2nn[nH]n2)cc1 (stereo unspecified)
IC50 [1]: 1100 nM
inhibition in vivo at 15 mg/kg (Rattus norvegicus [5]): 88%

CCCCc1nc2ccc([C@@]3(c4ccccc4)C[C@H]4CCCN4O3)cc2c(=O)n1Cc1ccc(-c2ccccc2-c2nnn[nH]2)cc1
Activity (Rattus norvegicus [4]): 55 mmHg

C=CCn1cnc2ccc(Cl)cc2c1=O
inhibition at 50 µg/mL (Fusarium oxysporum): 4.9%
inhibition at 50 µg/mL (Fusarium graminearum): 5.5%
inhibition at 50 µg/mL (Cytospora mali): 28.3%

CC(C)c1nc2ccc(N(Cc3ccccc3)C(=O)c3cccs3)cc2c(=O)n1Cc1ccc(-c2ccccc2-c2nnn[nH]2)cc1
IC50 [3]: 0.22 nM
